Active and inactive are the calls of the source. The calls are words filed in the database; no cut-off is given here.

In experiment [1] the target is T1, Adenosine receptor A1 (Homo sapiens, UniProt P30542).
T1 sequence (P30542 whole entry): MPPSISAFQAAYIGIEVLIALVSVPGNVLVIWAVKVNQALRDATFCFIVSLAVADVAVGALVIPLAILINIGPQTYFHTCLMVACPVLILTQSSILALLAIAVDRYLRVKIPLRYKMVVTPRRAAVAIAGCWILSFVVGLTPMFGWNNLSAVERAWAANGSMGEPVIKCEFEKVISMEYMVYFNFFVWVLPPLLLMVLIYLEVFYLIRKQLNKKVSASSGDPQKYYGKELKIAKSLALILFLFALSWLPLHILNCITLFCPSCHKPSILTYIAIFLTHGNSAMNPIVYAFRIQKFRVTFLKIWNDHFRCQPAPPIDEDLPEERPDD
In words: (§1) Displacement of [3H]CCPA from recombinant human A1 receptor expressed in CHO cell membranes.

For experiment [2], the target named is T2, Adenosine receptor A3 (Homo sapiens, UniProt P0DMS8).
T2 sequence (P0DMS8 whole entry): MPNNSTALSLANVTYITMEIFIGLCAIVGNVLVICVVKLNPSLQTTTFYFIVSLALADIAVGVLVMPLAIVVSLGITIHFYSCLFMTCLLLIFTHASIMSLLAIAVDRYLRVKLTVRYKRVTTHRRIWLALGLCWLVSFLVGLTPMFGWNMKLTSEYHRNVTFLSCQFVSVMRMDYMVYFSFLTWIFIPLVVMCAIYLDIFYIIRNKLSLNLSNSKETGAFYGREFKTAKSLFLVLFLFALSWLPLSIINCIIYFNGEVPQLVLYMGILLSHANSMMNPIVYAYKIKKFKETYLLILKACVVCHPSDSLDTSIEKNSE
In words: (§2) Displacement of [3H]HEMADO from recombinant human A3 receptor expressed in CHO cell membranes.

Experiment [3] concerns the target Adenosine receptor A2a (Homo sapiens, UniProt P29274). Briefly: Displacement of [3H]NECA from recombinant human A2A receptor expressed in CHO cell membranes.
The target in experiment [4] is T3, Adenosine receptor A2b (Homo sapiens, UniProt P29275).
T3 sequence (P29275 whole entry): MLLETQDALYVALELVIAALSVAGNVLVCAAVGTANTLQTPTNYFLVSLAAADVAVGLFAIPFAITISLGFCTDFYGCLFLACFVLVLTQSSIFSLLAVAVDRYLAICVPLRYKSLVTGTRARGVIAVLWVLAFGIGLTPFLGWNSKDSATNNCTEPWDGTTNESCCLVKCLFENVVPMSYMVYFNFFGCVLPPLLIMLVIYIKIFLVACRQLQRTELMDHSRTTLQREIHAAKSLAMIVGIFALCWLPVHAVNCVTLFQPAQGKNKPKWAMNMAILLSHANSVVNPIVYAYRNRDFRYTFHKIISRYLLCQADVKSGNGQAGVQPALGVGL
Briefly: Antagonist activity at recombinant human A2B receptor expressed in CHO cell membranes assessed as inhibition of NECA-stimulated adenylyl cyclase activity. It counts as functional, cell-based.

In experiment [5] the target is T4, Adenosine receptor A1 (Homo sapiens) (UniProt P30542).
T4 sequence (whole entry): T1 sequence (P30542 whole entry)
The description is as §1.

Experiment [6] has as its target T5, Adenosine receptor A2b (Homo sapiens) (UniProt P29275).
T5 sequence (whole entry): T3 sequence (P29275 whole entry)
In words: Antagonist activity at recombinant human A2B receptor expressed in CHO cell membranes assessed as inhibition of NECA-stimulated adenylyl cyclase activity up to 30 uM. In kind it is functional, cell-based.

For experiment [7], the target named is T6, Adenosine receptor A3 (Homo sapiens) (UniProt P0DMS8).
T6 sequence (whole entry): T2 sequence (P0DMS8 whole entry)
Described as §2.

For experiment [8], the species on record is Homo sapiens. In words: Selectivity ratio of Ki for displacement of [3H]CCPA from recombinant human A1 receptor expressed in CHO cell membranes to displacement of [3H]HEMADO from recombinant human A3 receptor expressed in CHO cell membranes.
Experiment [9] is filed under the species Homo sapiens. In words: Selectivity ratio of Ki for displacement of [3H]NECA from recombinant human A2A receptor expressed in CHO cell membranes to displacement of [3H]HEMADO from recombinant human A3 receptor expressed in CHO cell membranes.

Sequence of Adenosine receptor A2a (P29274 whole entry): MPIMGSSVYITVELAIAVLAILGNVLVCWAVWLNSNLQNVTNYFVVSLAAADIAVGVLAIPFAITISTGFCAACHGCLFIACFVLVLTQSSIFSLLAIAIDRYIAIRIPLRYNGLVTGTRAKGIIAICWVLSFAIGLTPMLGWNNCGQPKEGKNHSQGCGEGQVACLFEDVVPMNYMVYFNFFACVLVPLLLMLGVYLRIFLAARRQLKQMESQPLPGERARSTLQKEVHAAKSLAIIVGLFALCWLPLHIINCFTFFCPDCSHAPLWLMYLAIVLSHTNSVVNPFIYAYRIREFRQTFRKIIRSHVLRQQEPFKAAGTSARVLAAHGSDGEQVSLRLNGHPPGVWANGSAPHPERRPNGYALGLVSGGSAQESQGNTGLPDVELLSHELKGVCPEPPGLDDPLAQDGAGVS

Regarding `COc1ccc(-n2c(C(=O)c3sc(N4CCOCC4)nc3-c3ccccc3)cnc2N)cc1`, the Ki was greater than 100 µM in experiment [1], 13 µM in [2], greater than 100 µM in experiment [3] and greater than 10 µM in [4].
For `Cc1nc(Nc2ccc(Cl)cc2)sc1C(=O)c1cnc(N)n1-c1ccc(F)cc1`, the Ki in [1] was 19.8 µM; in experiment [2] it was 0.871 µM; in experiment [3] it was 13 µM; in experiment [4], greater than 10 µM.
`CS(=O)(=O)c1ccc(C(=O)c2cnc(N)n2-c2ccccc2)cc1`: the inhibition result in [5] and in experiment [6] was “inactive” in each case. Besides, the inhibition entry in experiment [7] was “Active”.
Turning to `Cc1ccc(C(=O)c2cnc(N)n2-c2ccccc2Cl)cc1`, the inhibition result in experiment [5] and in experiment [6] was “inactive” throughout. In experiment [7], the inhibition entry was “Active”.
On to `Cc1ccc(-n2c(C(=O)c3sc(N4CCOCC4)nc3-c3ccccc3)cnc2N)cc1`, for which the inhibition constant Ki in experiment [1] was greater than 100 µM; in [2], 17.8 µM; in experiment [3], 34 µM; in experiment [4] it was greater than 10 µM.
Taken in the same sequence, the figures for `CN(C)c1nc(NC(=O)c2ccccc2)sc1C(=O)c1cnc(N)n1-c1ccc(C(F)(F)F)cc1` were 19.7 µM, 4.92 µM, 16.7 µM and greater than 10 µM.
Consider `Nc1ncc(C(=O)c2ccc(Cl)cc2)n1-c1ccc(F)cc1`, for which the inhibition result in experiment [5], in experiment [6] and in experiment [7] was “inactive” each time.
`Cc1nc(Nc2ccccc2)sc1C(=O)c1cnc(N)n1-c1ccc(F)cc1`: the Ki in experiment [1] is 39.2 µM; in experiment [2], 0.19 µM; in experiment [3] it was 8.04 µM; in [4], greater than 10 µM. The Ratio Ki in experiment [8] amounted to 200; in experiment [9], 40.
In the case of `COc1ccc(-n2c(C(=O)c3sc(Nc4ccc(Cl)cc4)nc3C)cnc2N)cc1`, the Ki was 33.3 µM in experiment [1], 1.6 µM in experiment [2], 10.3 µM in experiment [3] and greater than 10 µM in [4].
As for `CN(C)c1nc(NC(=O)c2ccccc2)sc1C(=O)c1cnc(N)n1-c1ccc(Cl)cc1`, the Ki in experiment [1] was 25.4 µM; in experiment [2], 4.32 µM; in [3], 11.8 µM; in experiment [4] it was greater than 10 µM.
Consider `Cc1ccc(C(=O)c2cnc(N)n2-c2ccc(Cl)cc2)cc1`, for which the inhibition entry in [5], in experiment [6] and in experiment [7] was “inactive” each time.
Regarding `Nc1ncc(C(=O)c2ccncc2)n1-c1ccc(F)cc1`, the inhibition result in experiment [5] and in experiment [6] was “inactive” in each case.
For the compound `Nc1ncc(C(=O)c2sc(Nc3ccccc3)nc2-c2ccccc2)n1-c1ccc(F)cc1`, the Ki was 6.71 µM in experiment [1], 0.305 µM in experiment [2], 7.41 µM in experiment [3] and greater than 10 µM in experiment [4]. Moreover, the Ratio Ki in [8] and in experiment [9] was 20 to 40 throughout.
`Cc1ccc(C(=O)c2cnc(N)n2-c2ccc(F)cc2)cc1`: the inhibition result in experiment [5], in experiment [6] and in experiment [7] was “inactive” each time.
For the compound `Nc1ncc(C(=O)c2ccncc2)n1-c1ccc(Cl)cc1`, the inhibition result in experiment [5] and in experiment [6] was “inactive” throughout. Further, the inhibition result in experiment [7] is “Active”.
For the compound `Nc1ncc(C(=O)c2ccncc2)n1-c1ccc(C(F)(F)F)cc1`, the inhibition result in experiment [5] and in experiment [6] was “inactive” throughout.
Consider `Cc1ccc(C(=O)c2cnc(N)n2-c2cccc(Cl)c2)cc1`, for which the inhibition entry in experiment [5] and in [6] was “inactive” in each case. Further, in experiment [7], the inhibition result was “Active”.
Consider `Nc1ncc(C(=O)c2ccc(Cl)cc2)n1-c1ccc(F)c(Cl)c1`, for which the inhibition entry in experiment [5] and in [6] was “inactive” throughout. The inhibition entry in experiment [7] is “Active”.
Regarding `Cc1ccc(Nc2nc(C)c(C(=O)c3cnc(N)n3-c3ccc(F)cc3)s2)cc1`, the inhibition constant (Ki) was 37.5 µM in [1], 0.487 µM in experiment [2], 12.4 µM in experiment [3] and greater than 10 µM in [4]. Further, the Ratio Ki in experiment [8] and in [9] was 20 to 40 each time.
As to `COc1ccc(-n2c(C(=O)c3sc(Nc4ccccc4)nc3-c3ccccc3)cnc2N)cc1`, the Ki was 3.67 µM in experiment [1], 0.326 µM in experiment [2], 8.84 µM in experiment [3] and greater than 10 µM in experiment [4].
Regarding `Cc1nc(Nc2ccccc2)sc1C(=O)c1cnc(N)n1-c1ccc(Cl)cc1`, the Ki in experiment [1] is 33.5 µM; in experiment [2] it was 0.802 µM; in [3] it was 11.2 µM; in [4] it was greater than 10 µM.
Consider `COc1ccc(C(=O)c2cnc(N)n2-c2ccc(F)cc2)cc1`, for which the inhibition entry in experiment [5], in [6] and in [7] was “inactive” each time.
In the case of `COc1ccc(-n2c(C(=O)c3sc(Nc4ccccc4)nc3C)cnc2N)cc1`, the Ki in [1] is 48.6 µM; in [2], 0.574 µM; in experiment [3], 13.4 µM; in experiment [4], greater than 10 µM. Also, the Ratio Ki in experiment [8] and in experiment [9] was 20 to 40 throughout.
For `Nc1ncc(C(=O)c2ccc(Cl)cc2)n1-c1ccc(C(F)(F)F)cc1`, the inhibition result in experiment [5] and in [6] was “inactive” throughout. Besides, in experiment [7], the inhibition entry is “Active”.

The values above are taken from ChEMBL document CHEMBL4257492, “Discovery of 2-aminoimidazole and 2-amino imidazolyl-thiazoles as non-xanthine human adenosine A3 receptor antagonists: SAR and molecular modeling studies” (Medchemcomm, 2018).
